Measurements reported in patent publication US20260069541A1, “COMPOSITIONS AND METHODS FOR THE DELIVERY OF ACTIVE AGENTS INCLUDING NUCLEIC ACIDS” (Ohio State Innovation Foundation, priority 2022, published 2026).

Experiments:
miR-21 = test: In vitro gene regulation, RT-qPCR of miR-21 downstream genes; type: cell-based; conditions: KB and A549 cells; free solution, QTsome Original or QTPlus
Experimental: In Vitro Gene Regulation. KB, A549, THP-1, MC38, and RAW264.7 cells were seeded at 3×10^5 cells/well in 6-well plates 24 hours prior to treatments. Cells were treated with scramble oligonucleotide or AM21 in free solution, lipofectamine, QTsome Original, and QTPlus. Total RNA was extracted using TRI reagent (Zymo Research) per manufacturer protocol. cDNA was prepared by high-capacity cDNA reverse transcription kit (Invitrogen, Waltham, MA, USA), and real-time qPCR (RT-qPCR) was done using SsoAdvanced™ Universal SYBR® Green Supermix (Bio-Rad Laboratories, Hercules, CA) on a QuantStudio 7 Flex Real-time PCR System. All the RT-qPCR primers were purchased from Sigma-Aldrich. Beta-actin (Actb) was selected as the housekeeping gene control. The relative amount of RNA level was calculated and compared according to the 2-ΔΔCt method.

A549 cells [1] = test: Colony formation assay; type: cell-based; conditions: up to 1 week
Experimental: Colony Formation Assay. A549 cells were seeded at 100 cells/well in 24-well plates 24 hours prior to treatments. Cells were treated with 16-mer and 20-mer AM21 in free solution and QTPlus at concentrations of 1 uM and 10 uM. Cells were allowed to form colony for up to 1-week followed with fixation by methanol and colony detection by crystal violet.

[2] = system: FLuc mRNA expression in HEK293, A549, and KB; test: In vitro bioluminescent assay, FLuc mRNA delivery (Example 1); type: cell-based; conditions: comparison of ionizable lipids (FIG. 1D) and helper lipids (FIG. 1E)
Experimental: In Vitro Bioluminescent Assay. HEK293, A549, and KB were seeded at 3000 cells/well in 96-well plates 24 hours prior to treatments. Cells were treated with 0.1 ug of FLuc mRNA in QTsome Original or QTPlus. Cells were allowed to uptake QTsome Original or QTPlus encapsulating mRNA overnight. The mRNA expression was determined by Bright-Glo™ Luciferase Assay System (Promega, Madison, WI).

HEK293T cells = test: Bright-Glo luciferase assay, FFLuc mRNA delivery by QTsome+ (Example 2); type: cell-based; conditions: 10,000 HEK293T cells, 100 ng FFLuc mRNA, overnight
Experimental: To examine the delivery efficiency of QTsome+ lipid nanoparticles, FFLuc mRNA was selected as the reporter gene of interest to be encapsulated into different QTsome+ formulations. Bioluminescence intensity was measured by Bright-Glo luciferase kit used as the quantification of expressed firefly luciferase after mRNA transfection. We treated 10,000 HEK293T cells overnight with 100 ng FFLuc mRNA utilizing different formulations with lipofectamine 3000 as the positive control. […] Therefore, the follow-on samples were formulated at room temperature instead of 65° C. or 37° C.

FFLuc mRNA expression = test: In vivo mRNA expression after IM injection (IVIS bioluminescence); set-up: species or system ICR CD-1 Swiss mice; conditions: 1.5 μg per leg, two rounds combined, helper lipid in QTsome+
Text: ICR CD-1 Swiss mice were purchased from Charles River Laboratory Animals were housed in a temperature-controlled room under a 12 hr light/12 hr dark cycle and fed normal chow diet. All animal studies were reviewed and approved by the Ohio State University Institutional Laboratory Animal Care and Use Committee. Both male and female mice were used for experiments. In vivo mRNA expression was quantified by measuring firefly luciferase bioluminescence. Mice treated with IM injection of FFLuc mRNA lipid QTsome+ nanoparticles at 1.5 μg per leg were injected with luciferin intraperitonially 5 minutes prior to bioluminescence measurements. Bioluminescence images were taken by a in vivo imaging system (IVIS) under optimal exposure settings.

[3] = TNS fluorescence assay, apparent pKa; type: physicochemical; conditions: helper lipid in QTsome+, same % of DOTAP
Experimental: To evaluate the apparent pKa of the lipid QTsome+ nanoparticles including different combinations of lipids, 2-(p-toluidino) naphthalene-6-sulfonic acid (TNS) fluorescence assay was designed. TNS binds to positively charged lipids through electrostatic interactions and emits strong fluorescence upon excitation. A series of universal buffers (a combination of 10 mM NaCitrate, 10 mM NaPhasphate, 10 mM NaBorate, and 150 mM NaCl) with pH ranging from 3 to 12 was prepared. QTsome+ were diluted in these buffers at the final ionizable lipid (including SM-102, A066, DODMA and DOTAP) concentration of 75 μM. TNS was then added to the final concentration at 6.0 μM. pH was measured after thorough mixing of TNS and QTsome+ using a pH meter. TNS Fluorescence was obtained by transferring 200 μL of samples into a black-opaque plate in triplicate, and reading using a SpectraMax M5 plate reader with the excitation (λex) at 325 nm and the emission (Nem) at 435 nm. It was assumed that in the presence of amino lipids, TNS fluorescence reaches a maximum when 100% of the amino lipids are ionized, while TNS has little fluorescence when the amino lipids are in the un-ionized state. […]
Where FL is TNS fluorescence value, pKa is apparent pKa of the amino lipids, b is the measure of the cooperativeness of the protonation process of […].

[4] = system: A549 xenograft mouse model; test: In vivo antitumor efficacy of QTPlus-AM21 and erlotinib, A549 xenograft; set-up: species or system nude mice; conditions: A549 xenograft mice, individually or in combination
Experimental: Treatments were initiated once tumors reached 50-100 mm^3. […] All mice were dosed every 3 days for 5 doses. Tumor growth and body weight were monitored, and the tumor volumes were calculated according to the formula: All animal studies were reviewed and approved by The Ohio State University Institutional Laboratory Animal Care and Use Committee (IACUC). All mice were euthanized one day after the last dose to peak the immune activation and protein expression in TME.

A549 cells [5] = test: MTS assay, cell viability and synergy with erlotinib (CompuSyn); type: cell-based; conditions: fixed-ratio combination of QTPlus-AM21 and erlotinib
Experimental: MTS Assay. A549 cells were seeded at 3000 cells/well in 96-well plates 25 hours before treatments. […] After 72-hour treatment, cell viability was examined by CellTiter 96® AQueous One Solution (Promega, Madison, WI) per manufacturer protocol.

[6] = system: MC38 murine colorectal syngeneic model; test: In vivo antitumor efficacy, MC38 syngeneic model; set-up: species or system C57BL/6 mice; conditions: MC38 syngeneic mice, individually or in combination
Experimental: To evaluate the combination therapy of QTPlus-AM21 and anti-PDL I therapy, MC38 murine colorectal syngeneic model was generated by subcutaneously inoculating C57BL/6 mice (obtained from Charles River Laboratories) with 1×10^6 cells per mouse on the right flack. Treatments were initiated once tumors reached 50-100 mm^3. Mice (n=5) were intraperitoneally treated with saline, 3 mg/kg QTPlus-encapsulating scramble oligonucleotide, 3 mg/kg QTPlus-AM21, 10 mg/kg atezolizumab, and QTPlus-AM21/atezolizumab combination (3 mg/kg QTPlus-AM21 and 10 mg/kg atezolizumab).
All mice were dosed every 3 days for 5 doses. Tumor growth and body weight were monitored, and the tumor volumes were calculated according to the formula: […]
All animal studies were reviewed and approved by The Ohio State University Institutional Laboratory Animal Care and Use Committee (IACUC). All mice were euthanized one day after the last dose to peak the immune activation and protein expression in TME. Terminal Tumor growth inhibition (% TGI) was determined by the formula: […]
Flow Cytometry. […] Stained cells were analyzed using an LSR II flow cytometer in Flow Cytometry Shared Resources (FCSR) at The Ohio State University Comprehensive Cancer Center.

Compound: 5′-A*+T*+C*A*G*+T*+C*+T*G*A*+T*A*A*G*+C*+T-3′ (ATCAGTCTGATAAGCT; chemistry not given here) [AM21]
- miR-21 downstream gene regulation (miR-21): Akt1 downregulation, Ddah1 upregulation, and Pdl1 upregulation
- Inhibition of colony formation / A549 cell growth (A549 cells [1]): superior in inhibiting A549 cell growth in vitro

Compound: CCCCC/C=C\C/C=C\CCCCCCCCOCC(CN1CCCC1)OCCCCCCCC/C=C\C/C=C\CCCCC (centres unmarked) [A-066, 1-(2,3-bis(((9Z,12Z)-octadeca-9,12-dien-1-yl)oxy)propyl)pyrrolidine]
- mRNA delivery efficiency of QTPlus with different components [2]: the most suitable for mRNA delivery in QTsome platform

Compound: CCCCCCCC/C=C\CCCCCCCC(=O)OC[C@H](COP(=O)(O)OCCN)OC(=O)CCCCCCC/C=C\CCCCCCCC [DOPE, 1,2-dioleoyl-sn-glycero-3-phosphoethanolamine]
- Bioluminescence intensity (mRNA delivery efficiency) (HEK293T cells): outperformed DOPC and DSPC
- In vivo delivery efficiency (FLuc expression) (FFLuc mRNA expression): rather outperformed PC-based helper lipids
- mRNA delivery efficiency of QTPlus with different components [2]: the most suitable as helper lipids

Compound: CCCCCCCCCCCCCCCCCC(=O)OC[C@H](COP(=O)([O-])OCC[N+](C)(C)C)OC(=O)CCCCCCCCCCCCCCCCC [DSPC, distearoylphosphatidylcholine]
- Apparent pKa [3]: lowest pKa among all

Compound: CCCCC/C=C\C/C=C\CCCCCCCCC(CCCCCCCC/C=C\C/C=C\CCCCC)OC(=O)CCCN(C)C [MC3, dilinoleylmethyl-4-dimethylaminobutyrate, reference compound]
- Bioluminescence intensity (mRNA delivery efficiency) (HEK293T cells): slightly increased the delivery efficiency

Compound: C#Cc1cccc(Nc2ncnc3cc(OCCOC)c(OCCOC)cc23)c1 [erlotinib, Erlotinib]
- Body weight [4]: No significant differences in body weight
- Dose reduction index (DRI) (A549 cells [5]): 2.26

Compound: atezolizumab: an anti-PDL1 therapy, monoclonal antibody
- Body weight [6]: No significant differences in body weight
